The molecules below were run on HIV-1 (H9IIIB or NL4-3 virus) replication in MT4-GFP cells (assay: microbe, parasite or virus in culture). Conditions: Human immunodeficiency virus 1, NL43, MT4-GFP cells infected with HIV-1; 10% normal human serum; inhibition of reproductive ratio R0, 48-72 h post-infection; read-out: ViKinG IP (nM) with 10% NHS.
Format: cell-based

SMILES	IC50 [nM]
CCOC(=O)N1CCC2(CC1)N(CC)C(=O)c1c(O)c(=O)c(-c3nnc(Cc4ccc(F)cc4)s3)cn1N2C [Compound 5]	22
CCOC(=O)N1CCC2(CC1)N(CC)C(=O)c1c(O)c(=O)c(-c3nnc(Cc4ccc(F)cc4F)s3)cn1N2C [Compound 6]	13
CCCN1C(=O)c2c(O)c(=O)c(-c3nnc(Cc4ccc(F)cc4F)s3)cn2N(C)C12CCN(C(=O)OCC)CC2 [Compound 7]	58
CCN1C(=O)c2c(O)c(=O)c(-c3nnc(Cc4ccc(F)cc4F)s3)cn2N(C)C12CCN(C(C)=O)CC2 [Compound 10]	57
CCN1C(=O)c2c(O)c(=O)c(-c3nnc(Cc4ccc(F)cc4)s3)cn2N(C)C12CCN(C(=O)OCc1ccccc1)CC2 [Compound 11]	31
CCN1C(=O)c2c(O)c(=O)c(-c3nnc(Cc4ccc(F)cc4F)s3)cn2N(C)C12CCN(S(C)(=O)=O)CC2 [Compound 12]	24
CCN1C(=O)c2c(O)c(=O)c(-c3nnc(Cc4ccc(F)cc4F)s3)cn2N(C)C12CCN(S(=O)(=O)N(C)C)CC2 [Compound 13]	14
CCN1C(=O)c2c(O)c(=O)c(-c3nnc(Cc4ccc(F)cc4F)s3)cn2N(C)C12CCN1C(=O)CCC1C2 (centres unmarked) [Compound 14]	41
CCN1C(=O)c2c(O)c(=O)c(-c3nnc(Cc4ccc(F)cc4F)s3)cn2N(C)C12CCSCC2 [Compound 15]	178
CCN1C(=O)c2c(O)c(=O)c(-c3nnc(Cc4ccc(F)cc4F)s3)cn2N(C)C12CCS(=O)(=O)CC2 [Compound 16]	47
CCOC(=O)N1CCC2(CC1)N(C)C(=O)c1c(O)c(=O)c(-c3nnc(Cc4ccc(F)cc4)s3)cn1N2C [Compound 18]	13
CCOC(=O)N1CCC2(CC1)N(C)C(=O)c1c(O)c(=O)c(-c3nnc(Cc4ccc(F)cc4F)s3)cn1N2C [Compound 19]	9
C[C@@H]1CC2(CCN1C(=O)OCc1ccccc1)N(C)C(=O)c1c(O)c(=O)c(-c3nnc(Cc4ccc(F)cc4F)s3)cn1N2C (some centres unmarked) [Compound 20]	234
C[C@H]1CC2(CCN1C(=O)OCc1ccccc1)N(C)C(=O)c1c(O)c(=O)c(-c3nnc(Cc4ccc(F)cc4F)s3)cn1N2C (some centres unmarked) [Compound 21]	141
CN1C(=O)c2c(O)c(=O)c(-c3nnc(Cc4ccc(F)cc4F)s3)cn2N(C)C12CCOCC2 [Compound 22]	47
CC(=O)N1CCC2(CC1)N(C)C(=O)c1c(O)c(=O)c(-c3nnc(Cc4ccc(F)cc4F)s3)cn1N2C [Compound 23]	100
CN1C(=O)c2c(O)c(=O)c(-c3nnc(Cc4ccc(F)cc4F)s3)cn2N(C)C12CCN(S(=O)(=O)N(C)C)CC2 [Compound 24]	6
CN1C(=O)c2c(O)c(=O)c(-c3nnc(Cc4ccc(F)cc4F)s3)cn2N(C)C12CCSCC2 [Compound 25]	17
CN1C(=O)c2c(O)c(=O)c(-c3nnc(Cc4ccc(F)cc4F)s3)cn2N(C)C12CCN(S(C)(=O)=O)CC2 [Compound 26]	26
CN1C(=O)c2c(O)c(=O)c(-c3nnc(Cc4ccc(F)cc4F)s3)cn2N(C)C12CCS(=O)(=O)CC2 [Compound 27]	72
CN1C(=O)c2c(O)c(=O)c(-c3nnc(Cc4ccc(F)cc4F)s3)cn2N(C)C12CCNC(=O)CC2 (centres unmarked) [Compound 28]	122

Same assay, conditions: Human immunodeficiency virus 1, NL43, MT4-GFP cells infected with HIV-1; 100% normal human serum; inhibition of reproductive ratio R0, 48-72 h post-infection; read-out: ViKinG IP (nM) with 100% NHS

SMILES	IC50 [nM]
CN1C(=O)c2c(O)c(=O)c(C(=O)NCc3ccc(F)cc3F)cn2N(CC2CC2)C12CCOC2 (single isomer, unassigned) [Compound 151]	240
COCCCN1n2cc(C(=O)NCc3ccc(F)cc3F)c(=O)c(O)c2C(=O)N(C)C12CCOC2 (single isomer, unassigned) [Compound 157]	111
CCOP(=O)(CCN1n2cc(C(=O)NCc3ccc(F)cc3F)c(=O)c(O)c2C(=O)N(C)C12CCOC2)OCC (single isomer, unassigned) [Compound 159]	71
CN1C(=O)c2c(O)c(=O)c(C(=O)NCc3ccc(F)cc3F)cn2N(CCCC(F)(F)F)C12CCOC2 (single isomer, unassigned) [Compound 164]	178
CCOC(=O)N1CCC2(CC1)N(CC)C(=O)c1c(O)c(=O)c(-c3nnc(Cc4ccc(F)cc4)s3)cn1N2C [Compound 5]	250
CCOC(=O)N1CCC2(CC1)N(CC)C(=O)c1c(O)c(=O)c(-c3nnc(Cc4ccc(F)cc4F)s3)cn1N2C [Compound 6]	159
CCCN1C(=O)c2c(O)c(=O)c(-c3nnc(Cc4ccc(F)cc4F)s3)cn2N(C)C12CCN(C(=O)OCC)CC2 [Compound 7]	148
CCN1C(=O)c2c(O)c(=O)c(-c3nnc(Cc4ccc(F)cc4F)s3)cn2N(C)C12CCN(C(C)=O)CC2 [Compound 10]	1500
CCN1C(=O)c2c(O)c(=O)c(-c3nnc(Cc4ccc(F)cc4)s3)cn2N(C)C12CCN(C(=O)OCc1ccccc1)CC2 [Compound 11]	359
CCN1C(=O)c2c(O)c(=O)c(-c3nnc(Cc4ccc(F)cc4F)s3)cn2N(C)C12CCN(S(C)(=O)=O)CC2 [Compound 12]	126
CCN1C(=O)c2c(O)c(=O)c(-c3nnc(Cc4ccc(F)cc4F)s3)cn2N(C)C12CCN(S(=O)(=O)N(C)C)CC2 [Compound 13]	106
CCN1C(=O)c2c(O)c(=O)c(-c3nnc(Cc4ccc(F)cc4F)s3)cn2N(C)C12CCSCC2 [Compound 15]	3140
CCOC(=O)N1CCC2(CC1)N(C)C(=O)c1c(O)c(=O)c(-c3nnc(Cc4ccc(F)cc4)s3)cn1N2C [Compound 18]	254
CCOC(=O)N1CCC2(CC1)N(C)C(=O)c1c(O)c(=O)c(-c3nnc(Cc4ccc(F)cc4F)s3)cn1N2C [Compound 19]	133
CN1C(=O)c2c(O)c(=O)c(-c3nnc(Cc4ccc(F)cc4F)s3)cn2N(C)C12CCOCC2 [Compound 22]	731
CN1C(=O)c2c(O)c(=O)c(-c3nnc(Cc4ccc(F)cc4F)s3)cn2N(C)C12CCN(S(=O)(=O)N(C)C)CC2 [Compound 24]	86
CN1C(=O)c2c(O)c(=O)c(-c3nnc(Cc4ccc(F)cc4F)s3)cn2N(C)C12CCSCC2 [Compound 25]	257
CN1C(=O)c2c(O)c(=O)c(-c3nnc(Cc4ccc(F)cc4F)s3)cn2N(C)C12CCN(S(C)(=O)=O)CC2 [Compound 26]	161
CN1C(=O)c2c(O)c(=O)c(-c3nnc(Cc4ccc(F)cc4F)s3)cn2N(C)C12CCS(=O)(=O)CC2 [Compound 27]	712
CN1C(=O)c2c(O)c(=O)c(-c3nnc(Cc4ccc(F)cc4F)s3)cn2N(C)C12CCNC(=O)CC2 (centres unmarked) [Compound 28]	679

Same assay, conditions: Human immunodeficiency virus 1, NL43, MT4-GFP cells infected with HIV-1; serum free conditions (0% NHS); inhibition of reproductive ratio R0, 48-72 h post-infection; read-out: ViKinG IP (nM) with 0% NHS

SMILES	IC50 [nM]
CN1C(=O)c2c(O)c(=O)c(C(=O)NCc3ccc(F)cc3F)cn2N(CC2CC2)C12CCOC2 (single isomer, unassigned) [Compound 151]	0.7
CCOC(=O)N1CCC2(CC1)N(CC)C(=O)c1c(O)c(=O)c(-c3nnc(Cc4ccc(F)cc4)s3)cn1N2C [Compound 5]	16.4
CCCN1C(=O)c2c(O)c(=O)c(-c3nnc(Cc4ccc(F)cc4F)s3)cn2N(C)C12CCN(C(=O)OCC)CC2 [Compound 7]	29.9
CCN1C(=O)c2c(O)c(=O)c(-c3nnc(Cc4ccc(F)cc4F)s3)cn2N(C)C12CCN(S(=O)(=O)N(C)C)CC2 [Compound 13]	8.6
CCN1C(=O)c2c(O)c(=O)c(-c3nnc(Cc4ccc(F)cc4F)s3)cn2N(C)C12CCSCC2 [Compound 15]	8
CCN1C(=O)c2c(O)c(=O)c(-c3nnc(Cc4ccc(F)cc4F)s3)cn2N(C)C12CCS(=O)(=O)CC2 [Compound 16]	17.3
CN1C(=O)c2c(O)c(=O)c(-c3nnc(Cc4ccc(F)cc4F)s3)cn2N(C)C12CCN(S(=O)(=O)N(C)C)CC2 [Compound 24]	11.9
CN1C(=O)c2c(O)c(=O)c(-c3nnc(Cc4ccc(F)cc4F)s3)cn2N(C)C12CCSCC2 [Compound 25]	5.3
CN1C(=O)c2c(O)c(=O)c(-c3nnc(Cc4ccc(F)cc4F)s3)cn2N(C)C12CCN(S(C)(=O)=O)CC2 [Compound 26]	11.5
CN1C(=O)c2c(O)c(=O)c(-c3nnc(Cc4ccc(F)cc4F)s3)cn2N(C)C12CCS(=O)(=O)CC2 [Compound 27]	21.2
CN1C(=O)c2c(O)c(=O)c(-c3nnc(Cc4ccc(F)cc4F)s3)cn2N(C)C12CCNC(=O)CC2 (centres unmarked) [Compound 28]	53.5

Same assay, conditions: MT4-GFP cells infected with HIV-1; serum free conditions (0% NHS); inhibition of reproductive ratio R0, 48-72 h post-infection; read-out: ViKinG IP (nM) with 0% NHS

SMILES	IC50 [nM]
COCCCN1n2cc(C(=O)NCc3ccc(F)cc3F)c(=O)c(O)c2C(=O)N(C)C12CCOC2 (single isomer, unassigned) [Compound 157]	2.5

From patent US9707234B2, “Spirocyclic hetercycle compounds useful as HIV integrase inhibitors” (MERCK SHARP & DOHME CORP., priority 2013, dated 2017)
